In paper PMC11093748, “De novo identification of CD4^+ T cell epitopes” (Nature Methods, 2024):

Legend:
[1] = test system: BDC2.5 TCR; assay: I-Ag7 SABR-II library screen, enrichment score; format: cell-based, mouse; conditions: I-Ag7 library
Text: We then asked whether SABR-IIs could be used to present a library of epitopes for CD4^+ T cell antigen discovery. To that end, we constructed a SABR-II library to present epitopes derived from pancreatic islets in I-Ag7 by curating a list of 4,075 published epitopes from the Immune Epitope Database (iedb.org)[50] and a study by Wan et al.[51] (Supplementary Table 1). Of note, this defined library consisted of unmodified epitopes from endogenous proteins, synthetic mimotopes, deamidated epitopes and hybrid insulin peptides (HIPs) that arise from post-translational fusion and are not genetically encoded in vivo[52],[53]. The epitope library was inserted into the I-Ag7 SABR-II backbone through pooled oligonucleotide synthesis, amplification and ligation-free cloning (Extended Data Fig. 3a). The I-Ag7 SABR-II-library was then expressed in NFAT–GFP Jurkat cells. We confirmed that after sequencing, the library accounted for a mean of 708 reads per epitope (Extended Data Fig. 3b). As a proof of concept, we performed co-incubation assays with Jurkat cells expressing the BDC2.5 TCR and sorted the top 1–2% of GFP^+CD69^+ cells at a rate of ~20 min per replicate with three replicates per TCR. We extracted the genomic DNA from sorted cells, amplified the SABR portion of the integrated proviruses and subjected the amplicons to Illumina sequencing (Extended Data Fig. 3c,d). The 1–2% sort gate represents >50-fold enrichment of cognate epitopes with minimal loss of signal (Extended Data Fig. 3e–h). Sequence reads were aligned to the I-Ag7 SABR-II backbone and the corresponding epitopes were scored based on their read counts. For each TCR under investigation, an enrichment score (ES) was determined for all the epitopes in a library. In each experiment, three replicates of a sort with TCR-expressing Jurkat cells were performed and reads were counted post-sequencing. In addition, three replicates of the unsorted library were also sequenced. A linear regression model was built using the unsorted library counts and used to determine the expected abundance of each epitope in the library. The ES was calculated based on the difference between the measured and the expected abundance of each epitope on a per-TCR basis (Fig. 1e). Based on ES values, two quantitative thresholds were used to determine putative cognate epitopes of a given TCR. A high-confidence zone containing clear outliers with a high ES and a low-confidence zone containing weak outliers with a moderately high ES were determined (Fig. 1e). This two-tiered strategy was used to call putative hits from screens. All the top-scoring epitopes for the BDC2.5 TCR were known BDC2.5 ligands containing the WXRM(D/E) motif (Fig. 1f,g, enriched ligands in red), a well-characterized trait of the BDC2.5 TCR[43],[54]–[56]. Across several independent experiments there was limited variation in ES values for the same TCRs and several epitopes fell into high- or low-confidence zones consistently (Extended Data Fig. 4a). Using a different TCR that was isolated from NOD mice, 4-8Ins[57], which recognized the InsB9:23 epitope ([…]), we observed a similar pattern of ES for cognate epitopes (Extended Data Fig. 4b).
For SABR library screens, 3 × 10^6 NFAT–GFP Jurkat cells expressing the SABR library were labeled with CellTrace Violet (BioLegend) according to the manufacturer’s protocol before incubation with 3 × 10^6 Jurkat cells expressing the TCR of interest. These mixtures were incubated in a six-well plate for 16–20 h. Cells were stained with anti-CD69-APC-Cy7 where indicated (BioLegend) and the top 1–2% of GFP^+CD69^+ cells were sorted for genomic DNA extraction, indexing and sequencing (see below). Multiplexed assays were scaled on a per-TCR basis (for example 3 × 10^6 for each of three TCRs against 9 × 10^6 library cells). […]

[2] = test system: Jurkat cells, No TCR; assay: Single SABR-II co-incubation, background without TCR; format: cell-based, human; conditions: No TCR, Ext. Data Fig. 6C, 18-20 hr
Text: (§1) We performed systematic screening of the cloned TCRs against the I-Ag7 SABR-II library. Several TCRs along with a positive control (such as BDC2.5 or 4-8Ins) were screened individually against the library for each sort (Extended Data Fig. 6a and Supplementary Table 4). High- and low-confidence ES zones for each screened TCR were defined by the ES values of the control TCR’s cognate epitopes. For all putative cognate epitopes, single SABR-IIs were constructed, expressed in NFAT–GFP Jurkat cells and used for co-incubation with the corresponding TCRs. Co-incubation assays that yielded a GFP signal higher than that obtained in assays with no TCR were determined to be positive and the epitopes deemed true cognate ligands (Extended Data Fig. 6b,c). Using this strategy, we obtained epitopes in the high-confidence zone for eight TCRs (Fig. 3a and Extended Data Fig. 6b,d). Among numerous altered peptide ligands (APLs), these TCRs recognized the physiological InsC-ChgA HIP ([…] and analogs, recognized by TCR5, TCR6B, TCR9 and TCR34), InsC-Iapp HIP ([…] and analogs, recognized by TCR4 and TCR15) and InsB9:23 ([…] and analogs recognized by TCR24 and TCR37). These cognate high-confidence hits were validated using single SABR-II co-incubation assays (Fig. 3b and Extended Data Fig. 7a). Further validations using in vitro mouse interleukin-2 (mIL-2) secretion by TCR-expressing 5KC reporter cells[13] or CD25 expression by TCR-expressing splenic CD4^+ T cells upon stimulation with the cognate epitope were performed (Extended Data Fig. 7b,c). Furthermore, low-confidence hits were called for ten TCRs and tested in co-incubation assays.
(§2) For SABR library screens, 3 × 10^6 NFAT–GFP Jurkat cells expressing the SABR library were labeled with CellTrace Violet (BioLegend) according to the manufacturer’s protocol before incubation with 3 × 10^6 Jurkat cells expressing the TCR of interest. These mixtures were incubated in a six-well plate for 16–20 h. Cells were stained with anti-CD69-APC-Cy7 where indicated (BioLegend) and the top 1–2% of GFP^+CD69^+ cells were sorted for genomic DNA extraction, indexing and sequencing (see below). Multiplexed assays were scaled on a per-TCR basis (for example 3 × 10^6 for each of three TCRs against 9 × 10^6 library cells). For single SABR assays, unless otherwise defined, 5 × 10^5 SABR expressing NFAT–GFP Jurkat cells (or 5KC cells) were labeled with CellTrace Violet (BioLegend) according to the manufacturer’s protocol before incubation with 5 × 10^5 TCR-expressing Jurkat cells (or 5KC cells) in a round-bottom 96-well plate for 16–20 h. Cells were stained with anti-CD69-APC-Cy7 when indicated and acquired on the Attune NxT flow cytometer (Thermo Fisher Scientific). All flow analysis was performed using FlowJo (BD). For Daudi cell co-culture, 1 × 10^6 Jurkat cells expressing the TCR of interest were incubated with 1 × 10^6 Daudi cells expressing a SABR of interest for 3 days. On day 3, cells were labeled with anti-RT1B-PE and anti-Fas-APC-Cy7 before being acquired on the Attune NxT flow cytometer.

[3] = test system: TCR5; assay: Single SABR-II co-incubation, NFAT-GFP Jurkat; format: cell-based, mouse; conditions: TCR 5, Ext. Data Fig. 6C, 18-20 hr
Text: as §1, §2

[4] = test system: TCR4; assay: Single SABR-II co-incubation, NFAT-GFP Jurkat; format: cell-based, mouse; conditions: TCR 4, Ext. Data Fig. 6C, 18-20 hr
Text: as §1, §2

[5] = EXPT1 of 8 biological experiments

Sequence	Enrichment score [1, 5]	Enrichment score ([1]; EXPT2 of 8)	Enrichment score ([1]; EXPT3 of 8)	Enrichment score ([1]; EXPT4 of 8)	Enrichment score ([1]; EXPT5 of 8)	Enrichment score ([1]; EXPT6 of 8)	Enrichment score ([1]; EXPT7 of 8)	Enrichment score ([1]; EXPT8 of 8)	%GFP+CD69+ cells of SABR-NFAT-GFP-Jurkat cells ([2]; technical replicate 1)	%GFP+CD69+ cells of SABR-NFAT-GFP-Jurkat cells ([2]; technical replicate 2)	%GFP+CD69+ cells of SABR-NFAT-GFP-Jurkat cells ([3]; technical replicate 1)	%GFP+CD69+ cells of SABR-NFAT-GFP-Jurkat cells ([3]; technical replicate 2)	%GFP+CD69+ cells of SABR-NFAT-GFP-Jurkat cells ([4]; technical replicate 1)	%GFP+CD69+ cells of SABR-NFAT-GFP-Jurkat cells ([4]; technical replicate 2)
AAVRPLWVRMEAA [top putative hit of BDC2.5 TCR in I-Ag7 library]	0.000742	0.000415	0.000612	0.000371	0.0007	0.000851	0.000576	0.000606	–	–	–	–	–	–
AVRPLWVRME [top putative hit of BDC2.5 TCR in I-Ag7 library]	0.000751	0.000649	0.001092	0.001062	0.001109	0.000835	0.001173	0.001182	–	–	–	–	–	–
AVRPLWVRMEA [top putative hit of BDC2.5 TCR in I-Ag7 library]	0.000756	0.000652	0.000955	0.000753	0.000651	0.00121	0.001291	0.000826	–	–	–	–	–	–
EKAHHAIWARMDAKK	–	–	–	–	–	–	–	–	0.95%	0.84%	38%	39.6%	–	–
EKAHIPIWARMDAKK [top putative hit of BDC2.5 TCR in I-Ag7 library]	0.001977	0.00122	0.003326	0.002646	0.002482	0.002979	0.003083	0.003642	–	–	–	–	–	–
EKAHRPIWARMDAKK [top putative hit of BDC2.5 TCR in I-Ag7 library]	0.001675	0.001085	0.002939	0.002157	0.001924	0.002825	0.003201	0.003092	–	–	–	–	–	–
PGAGDLQTLALNAARDP	–	–	–	–	–	–	–	–	2.65%	2.56%	–	–	20.2%	20.4%
RRALQTLALNAARDP	–	–	–	–	–	–	–	–	4.17%	3.8%	–	–	12.8%	12.1%
RTRPLWVRME [top putative hit of BDC2.5 TCR in I-Ag7 library]	0.000766	0.000703	0.00077	0.000734	0.001024	0.001078	0.001083	0.001303	–	–	–	–	–	–
RVRPLWVRME [top putative hit of BDC2.5 TCR in I-Ag7 library]	0.001251	0.001157	0.001581	0.000795	0.001224	0.001618	0.001744	0.001586	–	–	–	–	–	–
SRLGAWVRME [top putative hit of BDC2.5 TCR in I-Ag7 library]	0.000522	0.000175	0.000684	0.000306	0.000243	0.000632	0.000765	0.000784	–	–	–	–	–	–
SRLGLWARME [top putative hit of BDC2.5 TCR in I-Ag7 library]	0.00089	0.000594	0.000983	0.000723	0.000811	0.001313	0.001203	0.001063	–	–	–	–	–	–
SRLGLWVRMA [top putative hit of BDC2.5 TCR in I-Ag7 library]	0.000692	0.000345	0.000603	0.000358	0.000683	0.000858	0.0006	0.000465	–	–	–	–	–	–
SRLGLWVRME [top putative hit of BDC2.5 TCR in I-Ag7 library]	0.000716	0.000449	0.000874	0.000616	0.000562	0.000596	0.000875	0.000992	–	–	–	–	–	–
